Values joined by “and” are separate entries in the source; they are usually repeats but may differ in a detail not shown here. Equal entries are not always repeated. Where two headings read alike, the source gives them in different places.
Legend:
Influenza virus = experiment: organism not typed; format: cell-based, influenza A virus; conditions: for Flu titer (pfu/ml) / Influenza virus titer, 10 μM / Influenza virus titer, 50 μM: plaque assay; for 10 μM treatment, Average / 50 μM treatment Average: average of replicates; for Avg PFU/ml: average of first and second experiment; for Influenza virus titer, 10 μM / Influenza virus titer, 50 μM: upper part of table (FIG. 5 data)
cells (nuclei count) = conditions: for Toxicity Data: Average, Mean: average of Exp 1-3 (SMW475, SMW477, SMW478), n 9
SARS2 = format: cell-based, SARS-CoV-2; conditions: for Infection Data: Percentage Infection Relative to Appropriate DMSO Control: avg background subtraction, replicate wells; for Infection Data: Average, Mean: average of Exp 1-3 (SMW475, SMW477, SMW478), n 9
[1] = 50 μM compound, replicate 1, DMSO (0.5%) control run per batch

In the case of `O=C(CN1CC(c2ccccc2)CC1=O)NCc1nnc(SCC2CCCCC2)n1-c1ccc(F)cc1` (stereo not drawn) [Compound 68125364, N-{[5-[(cyclohexylmethyl)thio]-4-(4-fluorophenyl)-4H-1,2,4-triazol-3-yl]methyl}-2-(2-oxo-4-phenyl-1-pyrrolidinyl)acetamide], the “Flu titer (pfu/ml)” value (Influenza virus; 1 μM compound, A549 cells) is reported as 72000 pfu/ml, the “Flu titer (pfu/ml)” value (Influenza virus; 10 μM compound, A549 cells) is reported as 62000 pfu/ml and the “Flu titer (pfu/ml)” value (Influenza virus; 50 μM compound, A549 cells) is reported as 79000 pfu/ml.
With `CC1=C(C(=O)OC2CCCCCCC2)C(c2ccc3c(c2)OCO3)NC(=O)N1` (stereo not drawn) [UMB115] the “10 μM treatment, Average” value (Influenza virus) was 3500, the “10 μM treatment” value (Influenza virus; replicate 2) was 5000 and the “50 μM treatment Average” value (Influenza virus; 50 μM compound) was 0. The “50 μM treatment” value (Influenza virus; [1]) was 0 and the “50 μM treatment” value (Influenza virus; 50 μM compound, replicate 2) was 0.
With `COc1ccc(CNCCCn2cccn2)c(OCC(O)CN2CCN(C)CC2)c1` (stereo not drawn) [Compound 18-13] the first experiment (Influenza virus; 10 μM screen) was 40000 PFU/ml, the second experiment (Influenza virus; 10 μM screen) was 20000 PFU/ml and the “Avg PFU/ml” value (Influenza virus; 10 μM screen) was 30000 PFU/ml. The “Influenza virus titer, 10 μM” value (Influenza virus) was 40000 PFU/virus/ml, the “first experiment PFU/ml” value (Influenza virus; 50 μM screen) was 80000 PFU/ml and the “second experiment PFU/ml” value (Influenza virus; 50 μM screen) was 110000 PFU/ml. For the same molecule, the “Avg PFU/ml” value (Influenza virus; 50 μM screen) was 95000 PFU/ml and the “Influenza virus titer, 50 μM” value (Influenza virus) was 80000 PFU/virus/ml.
For `COc1ccc(CNC2Cc3ccccc3C2)c(OCC(O)CN2CCN(C)CC2)c1` (stereo not drawn) [Compound 18-3], the first experiment (Influenza virus; 10 μM screen) was 12000 PFU/ml, the second experiment (Influenza virus; 10 μM screen) was 1000 PFU/ml and the “Avg PFU/ml” value (Influenza virus; 10 μM screen) was 6500 PFU/ml. The “Influenza virus titer, 10 μM” value (Influenza virus) was 12000 PFU/virus/ml, the “first experiment PFU/ml” value (Influenza virus; 50 μM screen) was 1100 PFU/ml and the “second experiment PFU/ml” value (Influenza virus; 50 μM screen) was 1700 PFU/ml. For the same molecule, the “Avg PFU/ml” value (Influenza virus; 50 μM screen) was 1400 PFU/ml and the “Influenza virus titer, 50 μM” value (Influenza virus) was 1100 PFU/virus/ml.
In the case of `COc1ccc(CNCCc2ccccc2C)c(OCC(O)CN2CCN(C)CC2)c1` (stereo not drawn) [UMB40], the “antiviral activity against IAV infection” value (Influenza virus; screening, A549 cells) is reported as “showed a degree of antiviral activity”.
With `O=C(NC1CCCCCC1)c1cn[nH]c1-c1ccc2c(c1)OCCO2` [UMB98] the “10 μM treatment, Average” value (Influenza virus) was 0, the “10 μM treatment” value (Influenza virus; replicate 2) was 0 and the “50 μM treatment Average” value (Influenza virus; 50 μM compound) was 0. The “50 μM treatment” value (Influenza virus; [1]) was 0 and the “50 μM treatment” value (Influenza virus; 50 μM compound, replicate 2) was 0.
`OC(COc1ccccc1CNCc1cn2c(n1)SCC2)CN1CCSCC1` (stereo not drawn) [Compound 32841411, 1-(2-{[(2,3-dihydroimidazo[2,1-b][1,3]thiazol-6-ylmethyl)amino]methyl}phenoxy)-3-(4-thiomorpholinyl)-2-propanol] was tested, and the “Flu titer (pfu/ml)” value (Influenza virus; 1 μM compound, A549 cells) was 170000 pfu/ml, the “Flu titer (pfu/ml)” value (Influenza virus; 10 μM compound, A549 cells) was 80000 pfu/ml and the “Flu titer (pfu/ml)” value (Influenza virus; 50 μM compound, A549 cells) was 31000 pfu/ml.
`CN(C)CCN(Cc1ccsc1)Cc1cccc(-c2ccsc2)c1` [SILCS20] was tested, and the “Toxicity Data: Average, Mean” value (cells (nuclei count); 1 uM) was 96.85%, the “Relative cell count to DMSO controls, Average 1 μM” value (cells (nuclei count); 1 μM, toxicity data, 100=DMSO control) was 96.85 and the “Toxicity Data: Average, Mean” value (cells (nuclei count); 5 uM) was 116.85%. The “Relative cell count to DMSO controls, Average 5 μM” value (cells (nuclei count); 5 μM, toxicity data, 100=DMSO control) was 116.85, the “Toxicity Data: Average, Mean” value (cells (nuclei count); 10 uM) was 138.88% and the “Relative cell count to DMSO controls, Average 10 μM” value (cells (nuclei count); 10 μM, toxicity data, 100=DMSO control) was 138.88. For the same molecule, the “Toxicity Data: Average, Mean” value (cells (nuclei count); 25 uM) was 78.06%, the “Relative cell count to DMSO controls, Average 25 μM” value (cells (nuclei count); 25 μM, toxicity data, 100=DMSO control) was 78.06 and the “Toxicity Data: Average, Mean” value (cells (nuclei count); 50 uM) was 7.37%. For the same molecule, the “Relative cell count to DMSO controls, Average 50 μM” value (cells (nuclei count); 50 μM, toxicity data, 100=DMSO control) was 7.37, the “Relative cell count to DMSO controls, Average (for correlation analysis)” value (cells (nuclei count); average value over the 5 tested concentrations (1 to 50 uM)) was 87.60 and the “Infection Data: Percentage Infection Relative to Appropriate DMSO Control” value (SARS2; 1 uM, Exp 1 (SMW475)) was 104.96% and 108.84% and 98.09%. The “Infection Data: Percentage Infection Relative to Appropriate DMSO Control” value (SARS2; 1 uM, Exp 2 (SMW477)) was 151.25% and 151.34% and 136.14%, the “Infection Data: Percentage Infection Relative to Appropriate DMSO Control” value (SARS2; 1 uM, Exp 3 (SMW478)) was 92.92% and 94.78% and 98.52% and the “Infection Data: Average, Mean” value (SARS2; 1 uM) was 115.20%. For the same molecule, the “Infection Data: Percentage Infection Relative to Appropriate DMSO Control” value (SARS2; 5 uM, Exp 1 (SMW475)) was 71.77% and 48.90% and 69.38%, the “Infection Data: Percentage Infection Relative to Appropriate DMSO Control” value (SARS2; 5 uM, Exp 2 (SMW477)) was 133.79% and 116.24% and 114.33% and the “Infection Data: Percentage Infection Relative to Appropriate DMSO Control” value (SARS2; 5 uM, Exp 3 (SMW478)) was 62.84% and 53.65% and 64.98%. The “Infection Data: Average, Mean” value (SARS2; 5 uM) was 81.76%, the “Infection Data: Percentage Infection Relative to Appropriate DMSO Control” value (SARS2; 10 uM, Exp 1 (SMW475)) was 45.14% and 27.86% and 26.38% and the “Infection Data: Percentage Infection Relative to Appropriate DMSO Control” value (SARS2; 10 uM, Exp 2 (SMW477)) was 76.01% and 46.79% and 30.46%. The “Infection Data: Percentage Infection Relative to Appropriate DMSO Control” value (SARS2; 10 uM, Exp 3 (SMW478)) was 30.07% and 13.27% and 56.68%, the “Infection Data: Average, Mean” value (SARS2; 10 uM) was 39.18% and the “Infection Data: Percentage Infection Relative to Appropriate DMSO Control” value (SARS2; 25 uM, Exp 1 (SMW475)) was 13.25% and 8.47% and 6.46%. The “Infection Data: Percentage Infection Relative to Appropriate DMSO Control” value (SARS2; 25 uM, Exp 2 (SMW477)) was 9.75% and 7.72% and 7.01%, the “Infection Data: Percentage Infection Relative to Appropriate DMSO Control” value (SARS2; 25 uM, Exp 3 (SMW478)) was 6.76% and 9.52% and 8.68% and the “Infection Data: Average, Mean” value (SARS2; 25 uM) was 8.63%. The “Infection Data: Percentage Infection Relative to Appropriate DMSO Control” value (SARS2; 50 uM, Exp 1 (SMW475)) was −0.47% and 0.47% and 1.44%, the “Infection Data: Percentage Infection Relative to Appropriate DMSO Control” value (SARS2; 50 uM, Exp 2 (SMW477)) was −0.57% and −0.19% and −1.43% and the “Infection Data: Percentage Infection Relative to Appropriate DMSO Control” value (SARS2; 50 uM, Exp 3 (SMW478)) was 125.56% and 159.57% and 149.88%. The “Infection Data: Average, Mean” value (SARS2; 50 uM) was 48.15%, the “Percentage Inhibition Average 1 μM” value (SARS2; SARS2, 1 μM) was −15.20% and the “Screening data (Relative infection to DMSO controls) Average 1 μM” value (SARS2; SARS2, 1 μM, 100=DMSO control) was 115.20. For the same molecule, the “Percentage Inhibition Average 5 μM” value (SARS2; SARS2, 5 μM) was 18.24%, the “Screening data (Relative infection to DMSO controls) Average 5 μM” value (SARS2; SARS2, 5 μM, 100=DMSO control) was 81.76 and the “Percentage Inhibition Average 10 μM” value (SARS2; SARS2, 10 μM) was 60.82%. The “Screening data (Relative infection to DMSO controls) Average 10 μM” value (SARS2; SARS2, 10 μM, 100=DMSO control) was 39.18, the “Percentage Inhibition Average 25 μM” value (SARS2; SARS2, 25 μM) was 91.37% and the “Screening data (Relative infection to DMSO controls) Average 25 μM” value (SARS2; SARS2, 25 μM, 100=DMSO control) was 8.63. The “Percentage Inhibition Average 50 μM” value (SARS2; SARS2, 50 μM) was 51.85%, the “Screening data (Relative infection to DMSO controls) Average 50 μM” value (SARS2; SARS2, 50 μM, 100=DMSO control) was 48.15 and the “Average (relative infection to DMSO over the 5 tested concentrations)” value (SARS2; SARS2, average over 1 to 50 uM, 100=DMSO control) was 58.58.

Source: patent US20240132484A1, “BROAD SPECTRUM ANTIVIRAL COMPOUNDS TARGETING THE SKI COMPLEX” (priority 2020, published 2024)
